This passage reports IC50 results from patent US20260207565A1, “COMPOUNDS THAT INHIBIT PKMYT1” (Exelixis, Inc., priority 2022, published 2026).

One experiment has as its target T1, PKMYT1 (Homo sapiens, UniProt Q99640).
T1 construct: PKMYT1 (93 kD, full length, N-terminal GST tag from Signal Chem); GST (N); purchased Signal Chem
T1 sequence (Q99640 1-499): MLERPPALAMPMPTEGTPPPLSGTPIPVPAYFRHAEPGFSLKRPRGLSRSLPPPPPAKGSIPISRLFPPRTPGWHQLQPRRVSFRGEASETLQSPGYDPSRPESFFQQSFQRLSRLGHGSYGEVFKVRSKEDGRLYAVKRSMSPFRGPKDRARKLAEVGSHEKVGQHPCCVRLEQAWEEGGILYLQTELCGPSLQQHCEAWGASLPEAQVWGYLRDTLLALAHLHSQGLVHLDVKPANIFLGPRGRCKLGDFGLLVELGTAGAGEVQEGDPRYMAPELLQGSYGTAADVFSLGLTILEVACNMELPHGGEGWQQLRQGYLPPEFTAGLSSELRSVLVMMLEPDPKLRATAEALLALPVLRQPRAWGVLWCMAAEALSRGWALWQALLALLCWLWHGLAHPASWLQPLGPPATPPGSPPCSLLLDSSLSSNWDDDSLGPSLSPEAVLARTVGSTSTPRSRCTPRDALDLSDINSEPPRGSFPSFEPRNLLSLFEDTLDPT
Put plainly: ADP-Glo PKMYT1 ATP-depletion assay. Particulars: 50 nM PKMYT1, 13.3 nM CDK1, 88 μM ATP, 120 minutes at RT, read-out: Biochemical IC50. As for the experimental part:
(§1) Biochemical IC50 values were determined via ADP-Glo™ assay. Cellular IC50 values were determined via AlphaLISA assay.
ADP-Glo™ PKMYT1 ATP-depletion assay. The activity of PKMYT1 is measured using a luciferase-luciferin based ATP detection reaction to quantify ATP depletion resulting from kinase-catalyzed phosphoryl transfer to CDK1 or autophosphorylation of PKMYT1. The ADP generated as a byproduct of the reaction is converted to ATP and used to drive a luciferase reaction. Test compounds were dissolved in DMSO and dispensed into Corning 3824 384-well plates prior to the experiment such that the final DMSO concentration was <10%. To the compounds was added 3 μL of PKMYT1 (93 kD, full length, N-terminal GST tag from Signal Chem). The reaction was started by the addition of 2 μL of CDK1 (58 kDa, full length, N-terminal GST tag from Signal Chem) and ATP in assay buffer (50 mM Hepes, 40 mM NaCl, 10 mM MgCl2, 1 mM DTT, 0.1 mg/mL BSA, 2.5 mM MnCl2). Final assay concentrations were 50 nM PKMYT1, 13.3 nM CDK1, and 88 μM ATP. Plates were centrifuged for 1 minute at 1000 RPM and incubated at RT for 120 minutes. After the incubation period, ADP-Glo™ reagent was added and the plates were incubated for another 40 minutes before finally adding the kinase detection reagent, 30 minutes after the addition, plates were placed on a PHERAstar® plate reader and read using the Luminescence Protocol, integration time at 0.5 seconds.

In experiment [1] the test system is phosphorylation of CDK1 at Thr14 in HCC1806 cells. The experiment can be described thus: Cell lysate AlphaLISA assay measuring inhibition of phosphorylation of CDK1 Thr14. The experiment is classed as cell-based. Particulars: Homo sapiens, HCC1806, 4 h, compounds incubated 4 hours, AlphaLISA SureFire Ultra CDK1 Thr14, read-out: Cellular IC50. As for the experimental part:
as §1
Cell lysate AlphaLISA® assay measuring inhibition of phosphorvlation of CDK1 Thr14. Inhibition of phosphorylation of CDK1 at Thr14 was determined using AlphaLISAn SureFire® Ultra™ Kit from Perkin Elmer (ALSU-PCDK1-A10K). HCC1806 cells were seeded at 2K cells per well (50 μl/well) in 384-well plates (Corning 3570) and stored overnight at 37° C. and 5% CO2. The following day, the compounds dissolved in DMSO were introduced to the cells and incubated for 4 hours at 37° C. and 5% CO2. The cells were then washed with PBS using Blue® Washer and 10 μl of lysis buffer containing protease inhibitor was added. The plate was placed on an orbital shaker (at 4° C.) for 30 minutes and stored overnight at −80° C. for complete lysing. The next day, the plates were thawed at room temperature for at least 30 min. Reagents were prepared in a dimmed light setting (<100 lumens). The assay was run by first adding 5 μl of the acceptor mix (reaction buffer 1: reaction buffer 2:activation buffer:acceptor beads 47:47:4:2), covering the plate with foil, shaking for 2 minutes, and incubating at RT for 60 minutes. The donor mix (dilution buffer:donor beads 47:3) was then added at 5 μl per well, placed on the shaker for 2 minutes and incubated at RT for 60 minutes before reading the plates on a PHERAstar® plate reader. The results were normalized to DMSO (0% Inhibition) and 3 μM of reference compound.

Usually IC50 stands for the concentration at which inhibition is half-maximal. With `CCn1cc(C#N)c2c(-c3ccc(C)c(O)c3C)c(N)c(C(N)=O)nc21` (single isomer, unassigned) [Compound 82, (M)-5-amino-3-cyano-1-ethyl-4-(3-hydroxy-2,4-dimethylphenyl)-1H-pyrrolo[2,3-b]pyridine-6-carboxamide], the IC50 (on PKMYT1; in experiment [1]) was below 0.05 µM in each case.
On to `Cc1ccc(O)c(C)c1-c1cc(C(N)=O)nc2cn[nH]c12` [Compound 16, 7-(3-hydroxy-2,6-dimethylphenyl)-1H-pyrazolo[4,3-b]pyridine-5-carboxamide], for which the values for the IC50 (on PKMYT1; in experiment [1]) were 1 to 5 µM and at least 5 µM, respectively.
The like results for `CCn1cc(-c2ncon2)c2c(-c3c(C)ccc(O)c3C)cc(C(N)=O)nc21` (atropisomer, axis not shown; (P)) [Compound 71, (P)-1-Ethyl-4-(3-hydroxy-2,6-dimethylphenyl)-3-(1,2,4-oxadiazol-3-yl)-1H-pyrrolo[2,3-b]pyridine-6-carboxamide] were, in that order, below 0.05 µM and below 0.05 µM.
Regarding `Cc1ccc(O)c(C)c1-c1c(N)c(C(N)=O)nc2c1ncn2C1CC1` (single isomer, unassigned) [Compound 77, (P)-6-amino-3-cyclopropyl-7-(3-hydroxy-2,6-dimethylphenyl)-3H-imidazo[4,5-b]pyridine-5-carboxamide], the IC50 (on PKMYT1; in experiment [1]) was below 0.05 µM each time.
For the compound `Cc1c(O)cccc1-c1c(N)c(C(N)=O)cn2c(C)nnc12` (single isomer, unassigned) [Compound 52, (P)-7-Amino-8-(3-hydroxy-2-methylphenyl)-3-methyl-[1,2,4]triazolo[4,3-a]pyridine-6-carboxamide], the IC50 on PKMYT1 is 0.05 to 0.5 µM; in experiment [1] it was at least 5 µM.
As to `Cc1ccc(O)c(C)c1-c1cc(C(N)=O)cc2c1cnn2C` [Compound 35, 4-(3-hydroxy-2,6-dimethylphenyl)-1-methyl-indazole-6-carboxamide], the IC50 on PKMYT1 is 1 to 5 µM; in experiment [1], at least 5 µM.
Regarding `Cc1c(O)cccc1-c1c(N)c(C(N)=O)cn2c(C)nnc12` (racemic) [Compound 51, 7-Amino-8-(3-hydroxy-2-methylphenyl)-3-methyl-[1,2,4]triazolo[4,3-a]pyridine-6-carboxamide], the IC50 on PKMYT1 is 0.5 to 1 µM; in experiment [1], at least 5 µM.
For `Cc1ccc(O)c(C)c1-c1cc(C(N)=O)cc2nn(C)cc12` [Compound 36, 4-(3-hydroxy-2,6-dimethylphenyl)-2-methyl-indazole-6-carboxamide] the same measures were 1 to 5 µM and at least 5 µM.
The like results for `Cc1c(O)cccc1-c1c(N)c(C(N)=O)cn2ccnc12` [Compound 43, 7-amino-8-(3-hydroxy-2-methylphenyl)imidazo[1,2-a]pyridine-6-carboxamide] were, in that order, 0.5 to 1 µM and at least 5 µM.
Take `Cc1ccc(O)c(C)c1-c1cc(C(N)=O)nc2c1c(C#N)cn2C(C)C` (atropisomer, axis not shown; (P)) [Compound 88, (P)-3-cyano-4-(3-hydroxy-2,6-dimethylphenyl)-1-isopropyl-1H-pyrrolo[2,3-b]pyridine-6-carboxamide]: the IC50 (on PKMYT1; in experiment [1]) was below 0.05 µM each time.
Regarding `Cn1cc(C#N)c2c(-c3cccc(O)c3)c(N)c(C(N)=O)nc21` [Compound 7, 5-Amino-3-cyano-4-(3-hydroxyphenyl)-1-methyl-1H-pyrrolo[2,3-b]pyridine-6-carboxamide], the results for the IC50 (on PKMYT1; in experiment [1]) were below 0.05 µM and 0.05 to 0.5 µM, respectively.
The like results for `Cc1c(O)cccc1-c1c(N)c(C(N)=O)nc2c1c(C#N)nn2C` (racemic) [Compound 54, 5-Amino-3-cyano-4-(3-hydroxy-2-methylphenyl)-1-methyl-1H-pyrazolo[3,4-b]pyridine-6-carboxamide] were, in that order, below 0.05 µM and 0.05 to 0.5 µM.
The like results for `Cc1ccc(O)c(C)c1-c1c(N)c(C(N)=O)nc2c1ncn2C` [Compound 1, 6-Amino-7-(3-hydroxy-2,6-dimethylphenyl)-3-methyl-3H-imidazo[4,5-b]pyridine-5-carboxamide] were, in that order, below 0.05 µM and 0.05 to 0.5 µM.
For `Cc1ccc(O)c(C)c1-c1cc(C(=O)N(C)C)nc2cn[nH]c12` [Compound 20], the IC50 (on PKMYT1; in experiment [1]) was at least 5 µM in each case.
On to `Cc1c(O)cccc1-c1c(N)c(C(N)=O)nc2c1c(C#N)cn2C` (single isomer, unassigned) [Compound 5, (M)-5-Amino-3-cyano-4-(3-hydroxy-2-methylphenyl)-1-methyl-1H-pyrrolo[2,3-b]pyridine-6-carboxamide], for which the concentration for half-maximal inhibition (IC50) (on PKMYT1; in experiment [1]) was below 0.05 µM throughout.
Consider `Cc1ccc(O)c(C)c1-c1cc(C(N)=O)cc2cnn(C)c12` [Compound 40, 7-(3-hydroxy-2,6-dimethylphenyl)-1-methyl-indazole-5-carboxamide], for which the IC50 (on PKMYT1; in experiment [1]) was at least 5 µM in each case.
As for `Cc1ccc(O)c(C)c1-c1cc(C(N)=O)nc2c1c(Cl)cn2C` (racemic) [Compound 30, 3-chloro-4-(3-hydroxy-2,6-dimethylphenyl)-1-methyl-1H-pyrrolo[2,3-b]pyridine-6-carboxamide], the values for the IC50 (at PKMYT1; in experiment [1]) were 0.05 to 0.5 µM and 1 to 5 µM, respectively.
For `Cc1ccc(O)c(C)c1-c1cc(C(N)=O)nc2c1c(Br)cn2C` [Compound 24], the IC50 on PKMYT1 lay within 0.05 to 0.5 µM; in experiment [1], 1 to 5 µM.
The like results for `Cc1ccc(O)c(C)c1-c1cc(C(=O)N(C)C)cc2cn[nH]c12` [Compound 39] were, in that order, at least 5 µM and 1 to 5 µM.
For `Cc1c(Cl)cncc1-c1c(N)c(C(N)=O)nc2c1c(C#N)c(C)n2C` [Compound 12] the same measures were below 0.05 µM and 0.05 to 0.5 µM.
The like results for `Cc1c(O)cccc1-c1c(N)c(C(N)=O)nc2c1c(C#N)cn2C` (racemic) [Compound 4, 5-Amino-3-cyano-4-(3-hydroxy-2-methylphenyl)-1-methyl-1H-pyrrolo[2,3-b]pyridine-6-carboxamide] were, in that order, below 0.05 µM and below 0.05 µM.
Regarding `Cc1ccc(O)c(C)c1-c1cc(C(N)=O)nc2c1c(C#N)cn2CC(F)(F)F` (racemic) [Compound 23, 3-cyano-4-(3-hydroxy-2,6-dimethylphenyl)-1-(2,2,2-trifluoroethyl)pyrrolo[2,3-b]pyridine-6-carboxamide], the IC50 (on PKMYT1; in experiment [1]) was below 0.05 µM each time.
As for `COC(=O)c1cnc2c(-c3cccc(O)c3C)c(N)c(C(N)=O)cn12` [Compound 50, Methyl 7-amino-6-carbamoyl-8-(3-hydroxy-2-methylphenyl)imidazo[1,2-a]pyridine-3-carboxylate], the IC50 on PKMYT1 lay within 0.05 to 0.5 µM; in experiment [1], 0.5 to 1 µM.
The like results for `Cc1ccc(O)c(C)c1-c1c(N)c(C(N)=O)nc2c1ncn2C1CC(F)(F)C1` (atropisomer, axis not shown; (P)) [Compound 75, (P)-6-amino-3-(3,3-difluorocyclobutyl)-7-(3-hydroxy-2,6-dimethylphenyl)-3H-imidazo[4,5-b]pyridine-5-carboxamide] were, in that order, below 0.05 µM and below 0.05 µM.
